In PMC11944514, “Dengue Virus Inhibitors as Potential Broad-Spectrum Flavivirus Inhibitors” (Pharmaceuticals, 2025):
Entries after “also recorded” stand apart in the source; their conditions may differ.

Legend:
DENV2-Nanoluc = test: microbe, parasite or virus in culture; assay type: cell-based; conditions: for EC50: Dengue virus, DENV2, Vero C1008, read-out: DENV2 EC50, μM
[1] = xCELLigence real-time cytotoxicity assay (RTCA), CC50; assay type: cell-based; conditions: African green monkey, Vero E6 cells, 24 h of exposure
Description: As compounds C1, C2, and C3 were relatively toxic (Figure 2A), we determined the selectivity index (SI) of the identified potential broad-spectrum flavivirus inhibitors. As the WST-1 assay tends to underestimate the toxic effect and is unable to detect cytostatic effects, the CC50 of the perspective compounds was measured using a more sensitive xCELLigence real-time cytotoxicity assay (RTCA). […] The full xCELLigence RTCA data are provided in the Supporting Information section (Figures S2 and S3). Thereafter, for each compound, the SI was calculated as a ratio of the CC50 of a compound against its EC50 [36].
Vero E6 cells were seeded on a 16-well E-plate (ACEA Biosciences, Inc., San Diego, CA, USA ) at a density of 5 × 10^3 cells/well and allowed to adhere overnight. On the next day, the studied compounds were added at the final concentrations ranging from 0.078 μM to 5 μM with a two-fold dilution step for compounds C1, C2, and C3, and at the final concentrations ranging from 1.56 μM to 50 μM with a two-fold dilution step for compounds C5 and C6; 0.01% DMSO was used as a solvent control. The cells were incubated for 5 days, and the signals between the electrodes (impedance) were recorded using an RTCA xCELLigence machine (Agilent Technologies, Inc., Santa Clara, CA, USA). […] The CC50 values were calculated using GraphPad Prism 10.0 for Windows, GraphPad Software, v. 10.4.1, Boston, MA, USA, www.graphpad.com (accessed on 16 February 2025).

TBEV-Nanoluc = test: microbe, parasite or virus in culture; assay type: cell-based; conditions: for EC50: Tick-borne encephalitis virus, Vero C1008, read-out: TBEV EC50, μM
ZIKV-Nanoluc = test: microbe, parasite or virus in culture; assay type: cell-based; conditions: for EC50: Zika virus, Vero C1008, read-out: ZIKV EC50, μM
TBEV-Nanoluc replicon = assay type: cell-based
KUNV-Nanoluc replicon = assay type: cell-based
U2OS cells [2] = test: WST-1 cell viability assay, U2OS; assay type: cell-based, human; conditions: 48 h of exposure
Description: (§1) Vero E6 or U2OS cells were seeded on the 96-well plate at a density of 1 × 10^4 cells/well and were allowed to adhere overnight. Next day, the cells were treated with the studied compounds at concentrations ranging from 1 to 100 μM with a ten-fold dilution step. As a solvent control, 0.01% DMSO (Sigma, St. Louis, MO, USA) was used. After 48 h of exposure, 10 μL of WST-1 (10 mg/mL) cell proliferation reagent (Roche, Cat. No. 11644807001) was added to each well, and plates were incubated at 37 °C, 5% CO2 for 2 h. The optical density was then measured at 450 nm using an Epoch Microplate Spectrophotometer (BioTek Instruments, Inc., Winooski, VT, USA). Four independent experiments were carried out in triplicates.

DENV2-Nanoluc replicon = assay type: cell-based
Vero E6 cells [3] = test: WST-1 cell viability assay, Vero E6; assay type: cell-based, African green monkey; conditions: Vero E6, 48 h of exposure
Description: (§2) The cytotoxic effect of all studied compounds was assessed using the WST-1 assay after 48 h of exposure. […] This observation can be explained by the fact that the compound C8 is resazurin, phenoxazine dye, also known as Alamar Blue, which is subject to irreversible metabolic reduction to the resorufin by live mammalian cells. Thus, the cytotoxic effect of this compound cannot be assessed by the WST-1 assay correctly. Therefore, the C8 cytotoxicity was further assessed using the resazurin cell viability assay. This assay allowed us to avoid the interference between the tested compound and dye and obtain more reliable results for colored compounds.
as §1

KUNV-Nanoluc = test: organism not typed; assay type: cell-based; conditions: for EC50: Vero C1008, read-out: KUNV EC50, μM
ZIKV-Nanoluc replicon = assay type: cell-based
Vero E6 cells [4] = test: Resazurin cell viability assay, Vero E6; assay type: cell-based, African green monkey; conditions: Vero E6, 48 h of exposure
Description: as §2
Vero E6 cells were seeded on a 96-well plate at a density of 1 × 10^4 cells/well and were allowed to adhere overnight. On the next day, the medium was replaced with a fresh complete growth medium containing the desired compound at final concentrations ranging from 1 μM to 100 μM with a ten-fold dilution step; 0.05% DMSO was used as a solvent control. […] Thereafter, the fluorescence was measured by a Synergy H1 Hybrid Multi-Mode Microplate Reader (BioTek Instruments, Inc., Winooski, VT, USA) using a 540 nm excitation and 590 nm emission filter. […]

U2OS cells [5] = test system: U2OS cells; design: method as in PMID 31609477; conditions: previously reported; read-out: 50% cytotoxic concentration (CC50) against U2OS cells; cited from earlier work
DENV-2-NGC = test system: DENV-2-NGC; design: method as in PMID 17360676; conditions: Vero E6 cells; read-out: EC50, inhibition of DENV-2-NGC activity; cited from earlier work
WNV, DENV, and YFV = conditions: cited from earlier work
ZIKV = test system: ZIKV; design: method as in PMID 32452420; conditions: Vero E6 cells; read-out: EC50, inhibition of ZIKV replication; cited from earlier work

| SMILES | antiviral effect against DENV2-Nanoluc (initial screening) (DENV2-Nanoluc) | CC50 at 24 h [1] [µM] | antiviral effect against TBEV-Nanoluc (initial screening) (TBEV-Nanoluc) | antiviral effect against ZIKV-Nanoluc (initial screening) (ZIKV-Nanoluc) | antiviral effect against TBEV-Nanoluc replicon (TBEV-Nanoluc replicon) | antiviral effect against KUNV-Nanoluc replicon (KUNV-Nanoluc replicon) | cytotoxic effect (WST-1 assay) (U2OS cells [2]) | antiviral effect against DENV2-Nanoluc replicon (DENV2-Nanoluc replicon) | EC50 (TBEV-Nanoluc) [µM] | cytotoxic effect (WST-1 assay) (Vero E6 cells [3]) | antiviral effect against KUNV-Nanoluc (initial screening) (KUNV-Nanoluc) | antiviral effect against ZIKV-Nanoluc replicon (ZIKV-Nanoluc replicon) | EC50 (DENV2-Nanoluc) [µM] | EC50 (KUNV-Nanoluc) [µM] | EC50 (ZIKV-Nanoluc) [µM] | further results |
| --- | --- | --- | --- | --- | --- | --- | --- | --- | --- | --- | --- | --- | --- | --- | --- | --- |
| Nc1nc(N)c2c(Oc3ccc(F)cc3)cccc2n1 [Compound C4, 5-(4-fluorophenoxy)quinazoline-2,4-diamine] | negligible inhibition effect at the maximum tested concentration | > 0.2 | partially inhibit viral replication at the minimal tested concentration without an apparent dose-dependent effect | some tendency to decrease the ZIKV-Nanoluc activity at a concentration of 2 μM |  |  |  |  |  |  |  |  |  |  |  |  |
| Nc1ncnc2c1ncn2C1OC(CO)C(O)C1O (centres unmarked) [Compound C7, 2-(6-amino-9H-purin-9-yl)-5-(hydroxymethyl)oxolane-3,4-diol] |  | > 50 | clear dose-dependent antiviral effect |  | no inhibition of TBEV replication was observed; also recorded: inactive against all studied flavivirus replicons at the maximal non-toxic concentration | inactive against all studied flavivirus replicons at the maximal non-toxic concentration | more toxic for the U2OS cells at the maximum tested concentration than in the Vero E6 cells | slight inhibition effect against DENV2-Nanoluc if it was added at 1 h post-transfection; also recorded: inactive against all studied flavivirus replicons at the maximal non-toxic concentration | 8.33 | no cytotoxic effect at the maximal tested concentration | slight inhibition effect was observed for compound C7 at the 50 μM concentration | inactive against all studied flavivirus replicons at the maximal non-toxic concentration |  |  |  |  |
| O=[N+]([O-])c1c(Nc2ccccc2O)cc(Cl)c2nonc12 [Compound C5, 2-[(7-chloro-4-nitro-2,1,3-benzoxadiazol-5-yl)amino]phenol] | apparent dose-dependent antiviral effects | 12.8 | clear dose-dependent antiviral effect | at the 50 μM concentration, the virus activity was completely inhibited |  |  |  |  | 9.88 | moderate cytotoxic effect at 50 μM | decreased the KUNV-Nanoluc activity only at the maximum tested concentrations |  | 2.91 | 8.9 | 10.4 |  |
| O=c1ccc2[n+]([O-])c3ccc([O-])cc3oc-2c1.[Na+] [Compound C8, sodium 3-oxo-3H-phenoxazin-10-ium-7,10-bis(olate)] | negligible inhibition effect at the maximum tested concentration; also recorded: no antiviral effect against DENV2-Nanoluc in the tested concentrations range | > 50 | partially inhibit viral replication at the minimal tested concentration without an apparent dose-dependent effect |  |  |  |  |  |  | inverse dose-dependent effect |  |  |  |  |  | cytotoxic effect (resazurin cell viability assay) (Vero E6 cells [4]): no cytotoxic effect |
| COc1c(C)c2c(c(O)c1CC=C(C)CCC(=O)O)C(=O)OC2 [Compound C3, 6-(4-hydroxy-6-methoxy-7-methyl-3-oxo-1,3-dihydro-2-benzofuran-5-yl)-4-methylhex-4-enoic acid] | apparent dose-dependent antiviral effects | > 5 | clear dose-dependent antiviral effect | only demonstrated a statistically significant antiviral effect at the maximum tested concentration | no effect at the maximum non-toxic concentration | no effect at the maximum non-toxic concentration | extremely toxic for the U2OS cell line even at the lowest micromolar concentration | no effect at the maximum non-toxic concentration | 0.61 |  | apparent dose-dependent antiviral effect | no effect at the maximum non-toxic concentration | 0.12 | 0.21 | 0.53 | CC50 (U2OS cells [5]): 1660 nM; EC50 (DENV-2-NGC): 5700 nM |
| O[C@H]1[C@H]2c3cc4c(cc3CN3CCC(=C[C@@H]1O)[C@H]23)OCO4 [Compound C1, (1S,17S,18S,19S)-5,7-dioxa-12-azapentacyclo[10.6.1.0^2,^10.0^4,^8.0^15,^19]nonadeca-2(10),3,8,15-tetraene-17,18-diol] | apparent dose-dependent antiviral effects | 1.3 | the ten-fold increase in concentration did not lead to any significant improvement of the antiviral effect | completely inhibited the ZIKV-Nanoluc replication at the maximum tested concentration | later addition (at 8 h post-transfection) of C1 had a lower antiviral effect compared to earlier | later addition (at 8 h post-transfection) of C1 had a lower antiviral effect compared to earlier |  | later addition (at 8 h post-transfection) of C1 had a lower antiviral effect compared to earlier | 0.09 |  | apparent dose-dependent antiviral effect | later addition (at 8 h post-transfection) of C1 had a lower antiviral effect compared to earlier | 0.09 | 0.17 | 0.13 | reduction of viral titers of WNV, DENV, and YFV (WNV, DENV, and YFV): 10^2- to 10^4 fold; EC50 (ZIKV): 390 nM; concentration at which the antiviral effect appeared (TBEV-Nanoluc) (TBEV-Nanoluc): 0.2 µM; concentration at which a statistically significant antiviral effect appeared (ZIKV-Nanoluc) (ZIKV-Nanoluc): 0.2 µM |
